Results: the supplement of paper PMC10290057
Counter-ions that a name gives are not always drawn.

Experiments:
[1] = system: HCT116; experiment: efficacy (fitted maximal change in viability relative to DMSO control); higher = less cytotoxic (negative = loss of viability); conditions: 48 h
[2] = system: HCT116; experiment: AC50 cell viability (CellTiter-Glo); higher = less potent; conditions: 48 h
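For AC50 cell viability (CellTiter-Glo) in this document: HCT116 colorectal carcinoma cells screened at five concentrations per compound, luminescent viability scaled between DMSO wells and empty wells on each plate, curves fitted per compound.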
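For efficacy (fitted maximal change in viability relative to DMSO control) in this document: Luminescence-based viability readout, five doses per compound, normalized against on-plate DMSO and empty-well controls, followed by dose-response curve fitting for every drug.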

For `COc1cc(N2CCC(N)CC2)ccc1Nc1ncc(Cl)c(-c2c[nH]c3ccccc23)n1` [AZD-3463], the efficacy [1] was -137% and the AC50 cell viability [2] was 5.9 µM.
`Cc1cc(I)ccc1Nc1c(C(=O)NOCC2CC2)cc(F)c(F)c1F` gave an efficacy [1] of -95.1% and an AC50 cell viability [2] of 4.68 µM.
For `Nc1ccc(C(=O)Nc2cccc(-c3nc(N4CCOCC4)c4oc5ncccc5c4n3)c2)cn1`, the efficacy [1] was -88.1% and the AC50 cell viability [2] was 5.9 µM.
With `COc1cc(-c2nn(C3CCC(N4CCN(C(C)=O)CC4)CC3)c3ncnc(N)c23)ccc1NC(=O)c1cc2ccccc2n1C` (stereo unspecified) the efficacy [1] was -90.5% and the AC50 cell viability [2] was 10.5 µM.
`O=C(O)C1(Cc2cccc(Nc3nccs3)n2)CCC(Oc2cccc(Cl)c2F)CC1` (stereo unspecified) [MK-5108] showed an efficacy [1] of -34.3% and an AC50 cell viability [2] of 0.833 µM.
In the case of `CCOc1cc2c(c(F)c1OCC)C(=N)N(CC(=O)c1cc(N3CCOCC3)c(OC)c(C(C)(C)C)c1)C2` [E5555], the efficacy [1] is reported as -77% and the AC50 cell viability [2] is reported as 7.42 µM.
Molecule `COc1cc(N2CCN(C)CC2)ccc1Nc1ncc2c(n1)N(C)c1ccccc1C(=O)N2C` [XMD17-109 (ERK5-IN-1)] has an efficacy [1] of -89.1% and an AC50 cell viability [2] of 9.34 µM.
`CN(C)C(=O)c1ccc([S+](=O)([O-])c2ccc(NC(=O)[C@@](C)(O)C(F)(F)F)c(Cl)c2)cc1` [AZD-7545] gave an efficacy [1] of -33.1% and an AC50 cell viability [2] of 5.9 µM.
With `C=CC(=O)Nc1cc(Nc2nccc(-c3cn(C)c4ccccc34)n2)c(OC)cc1N(C)CCN(C)C` [Osimertinib mesylate] the efficacy [1] was -103% and the AC50 cell viability [2] was 8.33 µM.
With `Cc1ccc(C(C)(O)c2nc3ccccc3s2)c(C)c1` (stereo unspecified) the efficacy [1] was -43.4% and the AC50 cell viability [2] was 16.6 µM.
For `NCCCCNCCCN` [Spermidine], the efficacy [1] was -78.6% and the AC50 cell viability [2] was 23.5 µM.
Molecule `CC[S+]([O-])(=O)NC1=CC(=C(OC2=C(F)C=C(F)C=C2)C=C1)\C3=C\N(C)C(=O)C4=C3C=C[NH]4` [Mivebresib (ABBV-075)] has an efficacy [1] of -97.5% and an AC50 cell viability [2] of 0.0525 µM.
Molecule `CN(C[C@@H]1COCCO1)[S+]([O-])(=O)NC2=CC3=C(C=C2)\C=C/C4=C(C=C(C=N4)C5=C[N](C)N=C5)C3=O` [MK-2461] has an efficacy [1] of -103% and an AC50 cell viability [2] of 18.6 µM.
In the case of `NC1(CCC1)C2=CC=C(C=C2)C3=C(C=C/4C(=N3)\C=C/N5C(=O)N\N=C45)C6=CC=CC=C6` [MK-2206], the efficacy [1] is reported as -122% and the AC50 cell viability [2] is reported as 16.6 µM.
With `CCc1ccc(C(=O)Nc2cc(CN3CCN(C)CC3)cc(C(F)(F)F)c2)cc1C#Cc1cnc2ccnn2c1` [PRP003-013] the efficacy [1] was -100% and the AC50 cell viability [2] was 4.68 µM.
For `CC[C@]1(O)C[C@H]2CN(CCC3=C([NH]C4=C3C=CC=C4)[C@@](C2)(C(=O)OC)C5=C(OC)C=C6N(C)[C@H]7[C@](O)([C@H](OC(C)=O)[C@]8(CC)\C=C/CN9CC[C@]7([C@H]89)C6=C5)C(=O)OC)C1` [VINBLASTINE SULFATE], the efficacy [1] was -53.2% and the AC50 cell viability [2] was 0.372 µM.
`CC(C)c1noc(N2CCC(COc3ccc(-c4ccc([S+](C)(=O)[O-])cc4)nc3)CC2)n1` gave an efficacy [1] of -32.3% and an AC50 cell viability [2] of 3.72 µM.
In the case of `O=C(CCCCCCC(=O)N/N=C/c1ccc(N(c2ccccc2)c2ccccc2)cc1)NO` [WT-161], the efficacy [1] is reported as -86.8% and the AC50 cell viability [2] is reported as 2.09 µM.
In the case of `Cn1cnc2c(F)c(Nc3ccc(Br)cc3Cl)c(C(=O)NOCCO)cc21` [Selumetinib], the efficacy [1] is reported as -77% and the AC50 cell viability [2] is reported as 0.525 µM.
`C=CCc1cccc(/C=N/NC(=O)CN2CCN(Cc3ccccc3)CC2)c1O` [PAC-1] gave an efficacy [1] of -94.4% and an AC50 cell viability [2] of 7.42 µM.
In the case of `Nc1cc(C(F)(F)F)c(-c2cc(N3CCOCC3)nc(N3CCOCC3)n2)cn1` [BKM-120], the efficacy [1] is reported as -71.8% and the AC50 cell viability [2] is reported as 1.66 µM.
`CC(C)NC(=O)[C@H]1CC[C@@H](n2c(NC(=O)c3ccc(F)cc3)nc3ccc(CN4CCC(C(C)(C)O)CC4)cc32)CC1` [Belizatinib] was tested, and the efficacy [1] was -92.8% and the AC50 cell viability [2] was 7.23 µM.
With `C[C@@H](OC[C@@]1(c2ccccc2)CC[C@]2(CCC(=O)N2)CN1)c1cc(C(F)(F)F)cc(C(F)(F)F)c1` [Rolapitant] the efficacy [1] was -111% and the AC50 cell viability [2] was 13.2 µM.
`Nc1nccc(-c2c(-c3ccc(F)cc3)ncn2C2CCN(Cc3ccon3)CC2)n1` showed an efficacy [1] of -56.5% and an AC50 cell viability [2] of 13.2 µM.
Molecule `O=C(Nc1ccnc(NC(=O)C2CC2)c1)c1c(Cl)cccc1Cl` [GDC-046] has an efficacy [1] of -79.8% and an AC50 cell viability [2] of 2.35 µM.
`Cc1cnc(Nc2ccc(N3CCN(C)CC3)cc2)nc1Nc1cccc([S+](=O)([O-])NC(C)(C)C)c1` gave an efficacy [1] of -89.5% and an AC50 cell viability [2] of 1.86 µM.
`Clc1ccc(C(Cn2ccnc2)OCc2c(Cl)cccc2Cl)c(Cl)c1` (stereo unspecified) [Isoconazole nitrate] gave an efficacy [1] of -77.2% and an AC50 cell viability [2] of 23.5 µM.
In the case of `C/N=c1\ncc2cc(-c3cc(N/C(O)=N/CCC(C)(C)C)c(F)cc3C)c(C)nc2[nH]1`, the efficacy [1] is reported as -82.1% and the AC50 cell viability [2] is reported as 2.63 µM.
Work on `Cc1c[nH]c(-c2cnc(NCCNc3ccc(C#N)cn3)nc2-c2ccc(Cl)cc2Cl)n1` yielded an efficacy [1] of -72.6% and an AC50 cell viability [2] of 26.3 µM.
Molecule `Cc1ccc(Nc2nccc(N(C)c3ccc4c(C)n(C)nc4c3)n2)cc1[S+](N)(=O)[O-]` [Pazopanib] has an efficacy [1] of -51.5% and an AC50 cell viability [2] of 5.25 µM.
`NC/1=N/C(=O)C/2=C(/NCC3CN(CN23)C4=CC=C(C=C4)C(=O)N[C@@H](CCC(O)=O)C(O)=O)N1` (stereo partly specified) [Modufolin] was tested, and the efficacy [1] was -92% and the AC50 cell viability [2] was 8.33 µM.
With `CNC(=O)c1nn(C)c2c1C(C)(C)Cc1cnc(Nc3ccc(N4CCN(C)CC4)cc3)nc1-2` [Milciclib] the efficacy [1] was -63.4% and the AC50 cell viability [2] was 0.525 µM.
Work on `CCCC\1=C(/CNC(=O)C2=CC(=CC3=C2C=N[N]3C(C)C)C4=CC(=NC=C4)N5CCN(C)CC5)C(=O)NC(=C1)\C` [GSK-343] yielded an efficacy [1] of -101% and an AC50 cell viability [2] of 23.5 µM.
Molecule `Cc1c(O)cccc1C(=O)NC(CSc1ccccc1)C(O)CN1CC2CCCCC2CC1C(=O)NC(C)(C)C` (stereo unspecified) [Nelfinavir] has an efficacy [1] of -101% and an AC50 cell viability [2] of 20.9 µM.
`Cc1ccc(NC(=O)c2ccc(CN3CC[C@H](N(C)C)C3)c(C(F)(F)F)c2)cc1Nc1nccc(-c2cncnc2)n1` [Bafetinib (INNO-406)] was tested, and the efficacy [1] was -131% and the AC50 cell viability [2] was 7.23 µM.
`CC1(CN2CCC(n3c(=O)[nH]c4ccccc43)CC2)OCc2ccccc2-n2cccc21` (stereo unspecified) [Zaldaride maleate] gave an efficacy [1] of -74.1% and an AC50 cell viability [2] of 20.9 µM.
Molecule `CN(C)C1CCN(C(=O)c2ccc(NC(=O)Nc3ccc(-c4nc(N5CCOCC5)nc(N5CCOCC5)n4)cc3)cc2)CC1` [Gedatolisib] has an efficacy [1] of -69.6% and an AC50 cell viability [2] of 0.148 µM.
For `CN1CC[C@H]([C@@H](O)C1)C2=C(O)C=C(O)C3=C2O\C(=C/C3=O)C4=CC=CC=C4Cl` [Flavopiridol], the efficacy [1] was -63.7% and the AC50 cell viability [2] was 0.186 µM.
Molecule `CC(C)c1ccccc1Cc1cc(C(=O)Nc2ccc([S+](=O)([O-])c3ccccc3C(C)(C)C)cc2)c(O)c(O)c1O` [TW-37] has an efficacy [1] of -90.9% and an AC50 cell viability [2] of 20.9 µM.
`Cn1nccc1Nc1nccc(-c2cc3c(s2)C(C)(C)N(CCN2CCOCC2)C3=O)n1` was tested, and the efficacy [1] was -57.4% and the AC50 cell viability [2] was 0.525 µM.
In the case of `COc1ccc2c(c1)[C@]1(C[C@H]1c1ccc3c(/C=C/c4ccc(CN5C[C@@H](C)O[C@@H](C)C5)cc4)n[nH]c3c1)C(=O)N2`, the efficacy [1] is reported as -83.6% and the AC50 cell viability [2] is reported as 13.2 µM.
`NC\1=N\C(=O)N(\C=C1)[C@H]\2[C@H](O)[C@H](O)C(=C2F)\CO` [Fluorocyclopentenylcytosine] was tested, and the efficacy [1] was -66.3% and the AC50 cell viability [2] was 0.525 µM.
Molecule `CC[C@@H]([C@H](C)O)N1\N=C/N(C1=O)C2=CC=C(C=C2)N3CCN(CC3)C4=CC=C(OCC5CO[C@@](C5)(C[N]6C=NC=N6)C7=C(F)C=C(F)C=C7)C=C4` (stereo partly specified) [Posaconazole] has an efficacy [1] of -58.4% and an AC50 cell viability [2] of 6.61 µM.
`COc1cccc(-c2cc(F)ccc2C2Cc3nc(N)nc(C)c3C(=O)N2)n1` (stereo unspecified) [HSP-990] showed an efficacy [1] of -64.3% and an AC50 cell viability [2] of 0.0525 µM.
Work on `Cc1ccc(NC(=O)c2ccc(CN3CCN(C)CC3)cc2)cc1Nc1nccc(-c2cccnc2)n1` [Imatinib] yielded an efficacy [1] of -85% and an AC50 cell viability [2] of 16.6 µM.
`COC1=CC=C(C(=C1)OC(C)C)C/2=N/[C@@H]([C@@H](N2C(=O)N3CCNC(=O)C3)C4=CC=C(Cl)C=C4)C5=CC=C(Cl)C=C5` [Nutlin-3] showed an efficacy [1] of -98.3% and an AC50 cell viability [2] of 23.5 µM.
In the case of `CC(C)C[C@@H](C=O)NC(=O)[C@H](CC(C)C)NC(=O)[C@H](CC(C)C)NC(=O)OCc1ccccc1` [MG-132], the efficacy [1] is reported as -89.4% and the AC50 cell viability [2] is reported as 0.468 µM.
With `C[C@@H](C(=O)Nc1ccc(Cl)cc1)[C@H]1CC[C@@H](c2ccnc3ccc(F)cc32)CC1` the efficacy [1] was -47.3% and the AC50 cell viability [2] was 18.6 µM.
Work on `COC1=C(OC)C=C\2C(=C1)C(=O)N(CCCNCCO)\C3=C2C(=O)C4=C3C=C5OCOC5=C4` [LMP-744] yielded an efficacy [1] of -99.5% and an AC50 cell viability [2] of 4.17 µM.
With `CN(C)C1=CC=C(C=C1)C(C2=CC=C(C=C2)N(C)C)=C/3\C=C/C(/C=C3)=[N+](C)C` [Methylrosaniline chloride] the efficacy [1] was -84.9% and the AC50 cell viability [2] was 0.833 µM.
`c1cc(OCCN2CCCCC2)cc(-c2n[nH]c3ccc(-c4nc[nH]n4)cc23)c1` [CC-401] showed an efficacy [1] of -70.1% and an AC50 cell viability [2] of 14.8 µM.
In the case of `CC\1=C(C(=O)N(\C=C1)C2=CC=C(C=C2)C3=NC=CO3)/C4=CC5=CN=C(N)N=C5C=C4` [AMG-25], the efficacy [1] is reported as -47.6% and the AC50 cell viability [2] is reported as 1.66 µM.
Work on `O=C(NC1CCNCC1)c1n[nH]cc1NC(=O)c1c(Cl)cccc1Cl` [AT-7519] yielded an efficacy [1] of -65.1% and an AC50 cell viability [2] of 0.235 µM.
In the case of `O=C(NCC(=O)N1CC[C@H](NC2CCC(O)(c3ccc(-c4ncccn4)cn3)CC2)C1)c1cccc(C(F)(F)F)c1` (stereo partly specified), the efficacy [1] is reported as -47% and the AC50 cell viability [2] is reported as 5.9 µM.
Molecule `OC(c1cc(C(F)(F)F)nc2c(C(F)(F)F)cccc12)C1CCCCN1` (stereo unspecified) [MEFLOQUINE] has an efficacy [1] of -109% and an AC50 cell viability [2] of 20.9 µM.
`Cc1ccc(C(=O)Nc2ccc(CN3CCN(C)CC3)c(C(F)(F)F)c2)cc1C#Cc1cnc2cccnn12` [Ponatinib] showed an AC50 cell viability [2] of 1.48 µM.
